Like-named read-outs stand apart in the source and are kept apart here. Values belong to the molecule of their own block, whether it stands above or below them.
What was measured:
[1] = test system: AGS cells; assay: MTT viability assay in AGS cells; assay type: cell-based; conditions: Homo sapiens
Description: (§1) We decided to study, for the first time, the effect of pharmacological blockade of FPR1 on cell proliferation, cell migration, and angiogenesis in GC by using our antagonists 24a and 25a. We first assessed the expression levels of FPR1 and FPR2 mRNA in four GC cell lines, i.e., HGC27, derived from human gastric carcinoma, KATOIII, AGS, and NCl–N87, derived from human gastric adenocarcinoma. […] We first assessed the effect of compounds 24a and 25a on cell viability in both cell lines at 24, 48, and 72 h using the MTT assay (Table 2).
(§2) AGS and NCl–N87 human gastric cancer cell lines were purchased and authenticated by American Type Culture Collection (Manassas, Virginia, USA). All cell culture components were purchased from Sigma-Aldrich (Milan, Italy) and Celbio s.r.l. (Milano, Italy).
(§3) AGS and NCl–N87 human gastric cancer cell lines were grown in RPMI high glucose supplemented with 10% fetal bovine serum, 2 mM glutamine, 100 U/mL penicillin, 100 μg/mL streptomycin, in a humidified incubator at 37 °C with a 5% CO2 atmosphere.
(§4) Determination of cell growth was performed using the MTT assay at 24h, 48 h, and 72 h. On day 1, 5000 cells/well were seeded into 96-well plates in a volume of 100 μL. On day 2, the test compound was added at different concentrations. In all the experiments, the solvent used to dissolve the drug (ethanol, DMSO) was added in each control to evaluate possible cytotoxicity. After the established incubation time with drugs, MTT (0.5 mg/mL) was added to each well. Following 3 h incubation at 37 °C, the supernatant was removed. The formazan crystals were solubilized using 100 μL of DMSO and the absorbance values at 570 and 630 nm were determined on a Victor 3 microplate reader (PerkinElmer).

[2] = test system: NCl–N87 cells; assay: MTT viability assay in NCl–N87 cells; assay type: cell-based; conditions: Homo sapiens
Description: as §1, §2, §3, §4

[3] = test system: NCl–N87 cells; assay: Muse Ki67 proliferation assay in NCl–N87 cells; assay type: cell-based, human; conditions: NCl–N87, 5 μM, 24 h; control cells 81.3%
Description: Representative flow cytometry charts reporting percentage of Ki67 negative (blue) and positive (red) cells (panel A). Statistical charts reporting the results from three independent experiments and expressed as means ± SD (panel B). Statistical analysis was assessed by comparing the values obtained using single drug treatment to those of corresponding untreated cells and the combined treatments to those of the single treatments, *p < 0.05; **p < 0.001; ***p < 0.0001.
The Muse Ki67 Proliferation Assay was used with the Guava Muse Cell Analyzer according to manufacturer’s instructions (Luminex Corporation, Austin, USA). Briefly, the cells were stained after fixation and permeabilization procedures by using Hu Ki67 or Hu IgG1 control fluorochrome-conjugated antibodies to distinguish Ki67^+ or Ki67^− cells, respectively. The software provided the percentage of both Ki67(+) and Ki67(−) cells.

[4] = test system: VEGFA mRNA; assay: Real-time PCR of VEGFA mRNA expression in NCl–N87 and AGS cells; assay type: cell-based, human; conditions: 24 h, fMLF 10 nM, antagonists 1 or 2 μM, normalized to GAPDH, untreated = 1
Description: (§5) It has been reported that FPR1 can exert a tumor suppressor function in human GC by inhibiting angiogenesis and that silencing of the receptor increases the constitutive proangiogenic potential of GC cells. Therefore, we assessed the effect of 24a and 25a on the mRNA expression level and secretion of the proangiogenic factors, the vascular growth factor A (VEGFA), and the angiopoietin 2. […] These effects were more pronounced in NCl–N87 cells and resulted more strongly for 25a than 24a. The values obtained after each treatment were normalized to the expression of GAPDH and compared to the reference value of the two genes in untreated cells, which were set equal to 1 (Fig. 9).
(§6) Fig. 9. Effect of 24a and 25a on mRNA expression of VGFA and ANGPT2 in NCl–N87 and AGS cell lines. Real-time PCR experiments in NCl–N87 and AGS cells with specific primers for VEGFA and ANGPT2 genes. The mRNA expression was normalized on the GAPDH housekeeping gene. Expression analysis was performed after treatment with fMLF (10 nM) and 24a or 25a (1, 2, 5 μM) administrated alone or combining the lowest dose of 24a or 25a with fMLF. All expression values were calculated against the value of untreated PTX-sensitive cells, set equal to 1. Statistical analysis was assessed by comparing the values obtained using single drug treatment to those of corresponding untreated cells and the combined treatments to those of single treatments. The values of untreated PTX-resistant cells were compared with those of untreated PTX-sensitive ones. Data were mean ± SD (n = 3). *p < 0.05, **p < 0.001, ***p < 0.0002, ****p < 0.0001.
(§7) Total RNA was extracted from FPR1 antagonist-treated NCl–N87 and AGS treated cells using the Qiagen RNeasy Mini Kit (Qiagen, Hilden, Germany) following the manufacturer’s instructions. Samples were retro-transcribed using the iScript Advanced cDNA Synthesis Kit (Bio-Rad Laboratories, California, USA). Real-Time-PCRs analyzed cDNA samples for the evaluation of VEGFA and ANGPT2 expression. […] Relative quantification was performed using the ddCT method.

[5] = test system: ANGPT2 mRNA; assay: Real-time PCR of ANGPT2 mRNA expression in NCl–N87 and AGS cells; assay type: cell-based, human; conditions: 24 h, fMLF 10 nM, antagonists 1 or 2 μM, normalized to GAPDH, untreated = 1
Description: as §5, §6, §7

[6] = molecular target: T1, human FPR1 (Homo sapiens, UniProt P21462); assay: Antagonist effect on Ca2+ mobilization in FPR1-HL60 transfected cells; conditions: inhibition of Ca2+ mobilization induced by 5 nM fMLF, N.A. = Not Active; for IC50: read-out: FPR1-HL60 (IC50)
T1 sequence (P21462 1-350): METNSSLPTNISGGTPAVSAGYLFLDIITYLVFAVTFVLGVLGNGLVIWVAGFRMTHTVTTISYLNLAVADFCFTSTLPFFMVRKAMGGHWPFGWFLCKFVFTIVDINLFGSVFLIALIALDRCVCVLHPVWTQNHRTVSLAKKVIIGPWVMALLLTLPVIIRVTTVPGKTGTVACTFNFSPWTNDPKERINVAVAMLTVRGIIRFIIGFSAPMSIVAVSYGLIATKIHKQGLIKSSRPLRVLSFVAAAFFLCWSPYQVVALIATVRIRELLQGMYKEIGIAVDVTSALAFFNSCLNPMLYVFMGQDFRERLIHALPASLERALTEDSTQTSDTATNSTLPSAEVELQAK

[7] = in vitro; conditions: rat, pH 7.4
[8] = 48 h, read-out: AGS EC50 (μM ± S.E.M.) 48 h
[9] = read-out: AGS EC50 (μM ± S.E.M.) 24 h, 24 h
[10] = read-out: AGS EC50 (μM ± S.E.M.) 72 h, 72 h
[11] = 48 h, read-out: NCl–N87 EC50 (μM ± S.E.M.) 48 h
[12] = read-out: NCl–N87 EC50 (μM ± S.E.M.) 24 h, 24 h
[13] = read-out: NCl–N87 EC50 (μM ± S.E.M.) 72 h, 72 h

EC50 [1, 8]: 11 ± 1.91 µM
EC50 [1, 9]: 24.7 ± 4 µM
EC50 [1, 10]: 7.55 ± 1.75 µM
SMILES: CCCCCCc1cc2c(=O)c(-c3ccccc3OC)c(C)oc2cc1OC(C)=O [Compound 24a, 6-Hexyl-3-(2-methoxyphenyl)-2-methyl-4-oxo-4H-chromen-7-yl acetate]
EC50 [2, 11]: 8.65 ± 0.65 µM
EC50 [2, 12]: 32.9 ± 2.95 µM
EC50 [2, 13]: 11.5 ± 1.2 µM
percentage of Ki67(+) cells [3]: 73.1%
VEGFA mRNA expression [4]: dose-dependent increase
angiopoietin 2 (ANGPT2) mRNA expression [5]: dose-dependent increase

EC50 [1, 8]: 8 ± 0.1 µM
EC50 [1, 9]: 16.7 ± 0.7 µM
EC50 [1, 10]: 5.45 ± 3.45 µM
SMILES: CCCCCCc1cc2c(=O)c(-c3ccccc3OC)c(C(F)(F)F)oc2cc1OC(C)=O [Compound 25a, 6-Hexyl-3-(2-methoxyphenyl)-4-oxo-2-(trifluoromethyl)-4H-chromen-7-yl acetate]
EC50 [2, 11]: 10.2 ± 1 µM
EC50 [2, 12]: 13.3 ± 1.88 µM
EC50 [2, 13]: 2.65 ± 0.5 µM
VEGFA mRNA expression [4]: dose-dependent increase
angiopoietin 2 (ANGPT2) mRNA expression [5]: dose-dependent increase

IC50 [6]: 0.8 ± 0.3 µM
SMILES: CCCCc1cc2c(=O)c(-c3ccccc3OC)c(C)oc2cc1OC(C)=O [Compound 28, 6-Butyl-3-(2-methoxyphenyl)-2-methyl-4-oxo-4H-chromen-7-yl acetate]

remaining at 0.5 h, 10 µM ([7]; rat liver microsomes): 18%
SMILES: CCCCCCc1cc2c(=O)c(-c3ccccc3OC)c(C)oc2cc1OCC(F)F [Compound 30, 7-(2,2-Difluoroethoxy)-6-hexyl-3-(2-methoxyphenyl)-2-methyl-4H-chromen-4-one]

remaining at 0.5 h, 10 µM ([7]; rat liver microsomes): 14%
SMILES: CCCCCCc1cc2c(=O)c(-c3ccccc3OC)c(C)oc2cc1NC(C)=O [Compound 35a, N-[6-Hexyl-3-(2-methoxyphenyl)-2-methyl-4-oxo-4H-chromen-7-yl]acetamide]

IC50 [6]: 21.9 ± 6.5 µM
SMILES: CCCCCCC(=O)Oc1cc2oc(C)c(-c3cccc(OC)c3)c(=O)c2cc1C [Compound 37b, 3-(3-Methoxyphenyl)-2,6-dimethyl-4-oxo-4H-chromen-7-yl heptanoate]

Second part, the molecule before the results:

SMILES: CCCCCCc1cc2c(=O)c(-c3cccc(OC)c3)c(C(F)(F)F)oc2cc1OC(C)=O [Compound 25b, 6-Hexyl-3-(3-methoxyphenyl)-4-oxo-2-(trifluoromethyl)-4H-chromen-7-yl acetate]
IC50 [6]: 0.16 ± 0.03 µM

SMILES: CCCc1cc2c(=O)c(-c3cccc(OC)c3)c(C)oc2cc1OC(C)=O [Compound 26b, 3-(3-Methoxyphenyl)-2-methyl-4-oxo-6-propyl-4H-chromen-7-yl acetate]
IC50 [6]: 0.15 ± 0.05 µM

SMILES: CCCCCc1cc2c(=O)c(-c3ccccc3OC)c(C)oc2cc1OC(C)=O [Compound 29, 3-(2-Methoxyphenyl)-2-methyl-4-oxo-6-pentyl-4H-chromen-7-yl acetate]
IC50 [6]: 0.4 ± 0.1 µM

SMILES: CCCc1cc2c(=O)c(-c3ccccc3OC)c(C)oc2cc1NC(C)=O [Compound 36, N-[3-(2-methoxyphenyl)-2-methyl-4-oxo-6-propyl-4H-chromen-7-yl]acetamide]
remaining at 0.5 h, 10 µM ([7]; rat liver microsomes): 15%

SMILES: CCCc1cc2c(=O)c(-c3ccccc3OC)c(C)oc2cc1OC(=O)N(C)C [Compound 39, 3-(2-Methoxyphenyl)-2-methyl-4-oxo-6-propyl-4H-chromen-7-yl dimethylcarbamate]
remaining at 0.5 h, 10 µM ([7]; Liver): 10%
FPR1-HL60 (IC50, μM) [6]: practically inactive
IC50 [6]: 28.9 ± 7.6 µM

— paper PMC10822168, “Development of potent isoflavone-based formyl peptide receptor 1 (FPR1) antagonists and their effects in gastric cancer cell models” (European journal of medicinal chemistry, 2023)
